Assay [1] relates to Candida albicans. Kind of assay: Antifungal activity against Candida albicans ATCC 10231 incubated for 16 to 20 hrs. The class given is functional. As to conditions: time 16-20 hrs.
Assay [2] concerns Enterococcus faecalis. Kind of assay: Antibacterial activity against Enterococcus faecalis ATCC 19433 incubated for 16 to 20 hrs. The class given is functional. As to conditions: time 16-20 hrs.
In assay [3] the test system is Klebsiella pneumoniae. Kind of assay: Antibacterial activity against Klebsiella pneumoniae ATCC 10031 incubated for 16 to 20 hrs. The assay is classed as functional. As to conditions: time 16-20 hrs.
In assay [4] the test system is Trichophyton mentagrophytes. Kind of assay: Antifungal activity against Trichophyton mentagrophytes IFM40996 incubated for 16 to 20 hrs. The class given is functional. As to conditions: time 16-20 hrs.
Assay [5] has as its system Staphylococcus aureus. Kind of assay: Antibacterial activity against Staphylococcus aureus ATCC 25923 incubated for 16 to 20 hrs. The class given is functional. As to conditions: time 16-20 hrs.
Assay [6] concerns Trichophyton rubrum. Kind of assay: Antifungal activity against Trichophyton rubrum NBRC9185 incubated for 16 to 20 hrs. As to conditions: time 16-20 hrs. The assay is classed as functional.
Assay [7] concerns Salmonella enterica. In words: microbe, parasite or virus in culture. As to conditions: ATCC 14028.
Description: Antibacterial activity against Salmonella enterica ATCC 14028 incubated for 16 to 20 hrs
The test system of assay [8] is Enterococcus faecium. In words: Antibacterial activity against Enterococcus faecium ATCC 19434 incubated for 16 to 20 hrs. The assay is classed as functional. As to conditions: time 16-20 hrs.
For assay [9], the system named is Escherichia coli. In words: Antibacterial activity against Escherichia coli ATCC 25922 incubated for 16 to 20 hrs. The assay is classed as functional. As to conditions: time 16-20 hrs.
The test system of assay [10] is Aspergillus fumigatus. Kind of assay: Antifungal activity against Aspergillus fumigatus HIC6094 incubated for 16 to 20 hrs. The class given is functional. As to conditions: time 16-20 hrs.

The structures appear in SMILES notation. Converted amounts (≈) assume the structure as drawn.

On to `CCCCCC/C=C\C[C@@H]1CC(=O)N[C@H](CC(C)C)C(=O)N[C@@H](CO)C(=O)N[C@@H]([C@@H](C)O)C(=O)N[C@H](Cc2ccccc2)C(=O)N[C@@H]([C@H](C)CC)C(=O)O1`, for which the MIC was above 128 µg/mL in [1]; 32 µg/mL (≈ 42.2 µM) in assay [2]; above 128 µg/mL in assay [3]; above 128 µg/mL in assay [4]; 16 µg/mL (≈ 21.1 µM) in assay [5]; above 128 µg/mL in assay [6]. The MIC in [7] was 8 µg/mL (≈ 10.6 µM); in assay [8] it was 32 µg/mL (≈ 42.2 µM); in assay [9] it was above 128 µg/mL; in assay [10], above 128 µg/mL.
Take `CCCCCCCCC[C@@H]1CC(=O)N[C@H](CC(C)C)C(=O)N[C@@H](CO)C(=O)N[C@@H]([C@@H](C)O)C(=O)N[C@H](Cc2ccccc2)C(=O)N[C@@H]([C@H](C)CC)C(=O)O1`: the MIC was above 128 µg/mL in assay [1]; 64 µg/mL (≈ 84.2 µM) in assay [2]; above 128 µg/mL in [3]; above 128 µg/mL in [4]; 16 µg/mL (≈ 21.1 µM) in assay [5]; above 128 µg/mL in assay [6]. Further, the MIC was 16 µg/mL (≈ 21.1 µM) in [7], 32 µg/mL (≈ 42.1 µM) in assay [8], above 128 µg/mL in assay [9] and above 128 µg/mL in assay [10].
With `CCCCCCC[C@@H]1CC(=O)N[C@H](CC(C)C)C(=O)N[C@@H](CO)C(=O)N[C@@H]([C@@H](C)O)C(=O)N[C@H](Cc2ccc(O)cc2)C(=O)N[C@@H](C(C)C)C(=O)O1`, the MIC in assay [1], in assay [2], in assay [3], in assay [4], in assay [5] and in assay [6] was above 128 µg/mL in each case. The MIC in assay [7], in assay [8], in assay [9] and in assay [10] was above 128 µg/mL each time.
With `CCCCCCC[C@@H]1CC(=O)N[C@H](CC(C)C)C(=O)N[C@@H](CO)C(=O)N[C@@H]([C@@H](C)O)C(=O)N[C@H](Cc2ccccc2)C(=O)N[C@@H]([C@H](C)CC)C(=O)O1`, the MIC is above 128 µg/mL in [1]; 32 µg/mL (≈ 43.7 µM) in assay [2]; above 128 µg/mL in [3]; above 128 µg/mL in assay [4]; 32 µg/mL (≈ 43.7 µM) in assay [5]; above 128 µg/mL in assay [6]. The MIC in [7] is 32 µg/mL (≈ 43.7 µM); in assay [8], 32 µg/mL (≈ 43.7 µM); in assay [9], above 128 µg/mL; in assay [10], above 128 µg/mL.
Consider `CCCCCCC[C@@H](O)CC(=O)N[C@H](CC(C)C)C(=O)N[C@@H](CO)C(=O)N[C@H](C(=O)N[C@H](Cc1ccccc1)C(=O)N[C@H](C(=O)OC)[C@H](C)CC)[C@@H](C)O`, for which the MIC in [1], in [2], in assay [3], in [4], in assay [5] and in [6] was above 128 µg/mL each time. In addition, the MIC in assay [7], in assay [8], in assay [9] and in [10] was above 128 µg/mL throughout.
Regarding `C[C@@H]1[C@H](O)[C@@H](C)/C=C/C=C/C=C/C=C/C=C/C=C/C=C/[C@H](O[C@@H]2O[C@H](C)[C@@H](O)[C@H](N)[C@@H]2O)C[C@@H]2O[C@](O)(C[C@@H](O)C[C@@H](O)[C@H](O)CC[C@@H](O)C[C@@H](O)CC(=O)O[C@H]1C)C[C@H](O)[C@H]2C(=O)O` [AMPHOTERICIN B], the MIC in assay [1] came out at 0.5 µg/mL (≈ 0.541 µM); in assay [4], 1 µg/mL (≈ 1.08 µM); in [6], 1 µg/mL (≈ 1.08 µM); in assay [10] it was 1 µg/mL (≈ 1.08 µM).
Consider `CC1(C)S[C@@H]2[C@H](NC(=O)[C@H](N)c3ccccc3)C(=O)N2[C@H]1C(=O)O` [AMPICILLIN], for which the MIC in [2] was 0.5 µg/mL (≈ 1.43 µM); in assay [3] it was above 128 µg/mL; in [5], 0.13 µg/mL (≈ 0.372 µM); in [7], 0.5 µg/mL (≈ 1.43 µM); in assay [8], 0.5 µg/mL (≈ 1.43 µM); in assay [9], 8 µg/mL (≈ 22.9 µM).
In [3], `CN(C)[C@@H]1C(O)=C(C(N)=O)C(=O)[C@@]2(O)C(O)=C3C(=O)c4c(O)cccc4[C@@](C)(O)[C@H]3C[C@@H]12` [TETRACYCLINE] gave an MIC of 0.25 µg/mL (≈ 0.563 µM).

Source of the values: ChEMBL document CHEMBL5634180, “Serratiomycins D1-D3, Antibacterial Cyclic Peptides from a Serratia sp. and Structure Revision of Serratiomycin” (2024).
